Assay results from patent publication US8563067B2, “Extended shelf life and bulk transport of perishable organic liquids with low pressure carbon dioxide” (Cornell Research Foundation, Inc., priority 2004, dated 2013).

How the values were obtained:
[1] = test system: aerobic bacteria (SPC) in raw milk; experiment: Standard Plate Count (SPC) of raw milk held under CO2 pressure, laboratory scale (Example 1); format: cell-based; details: for SPC increase / SPC reduction from initial SPC: 20° C.; for SPC reduction versus control: 1378 kPa
Description: The apparatus for pressurizing and holding raw milk samples is shown in schematic form in FIG. 9 and consisted of two 13-ml stainless steel 1.27-cm OD cylindrical vessels 60, 61; one vessel 60 was pressurized while the other served as a control 61. Compressed and filtered CO2 from a high-pressure tank 62 was used (Empire Airgas, Inc, Elmira, N.Y.). The system consisted of pressure regulator 63, a fine metering valve 64 (NUPRO Company, Willoughby, Ohio), an on-off valve 65 (Circle Seal, Anaheim, Calif.) and a check valve 66 (NUPRO Company, Willoughby, Ohio). The fine metering valve controlled gas flow such that the time to reach desired pressure was less than five seconds. The gas entered the vertically positioned treatment vessel 60 from the bottom and was thus bubbled through the milk until the set pressure was reached. A check valve 66 was placed immediately before the inlet to the pressure vessel to prevent the backward flow of the fluid milk into the gas inlet line. The outlet of the vessels consisted of a pressure gauge 67 and a high-pressure release valve 68 (High Pressure Equipment, Erie, Pa.). The release valve 68 was kept tightly closed during treatment. The control vessel 61 was closed off from both ends but not connected to the carbon dioxide line inlet and outlet lines.
Milk samples were mixed and 5 ml of milk added into the treatment and control vessels. The treatment vessel was connected to the apparatus and the control vessel closed off. Both vessels were placed in the water bath. When the desired temperatures were attained in both treatment and control vessels, CO2 was introduced through the bottom of the treatment vessel until the set pressure was reached. The CO2 pressure was maintained throughout the test period. When the desired time was reached, the CO2 inlet was turned off, the pressure release valve on the outlet line opened, and the pressure released in under one minute. After depressurization, the treatment and control vessels were removed from the water bath and their external surfaces were wiped dry, sanitized with 95% ethanol, detached from the apparatus and transferred into sterile containers for dilution and plating.
Short (<1 h) and longer term (1, 4 and 9 day) experiments were conducted. Raw milk (Northeast Dairy Herd Improvement Association, Inc.; Ithaca, N.Y.) in 5 ml aliquots was treated at each of the following combinations of CO2 pressure, temperature, and time (kPa/° C./min): 1378/5/15, 2757/5/5, 3446/5/5. In longer term studies, raw milk from the T&R Center was first stored at 6° C./48 h so that the SPC were at detectable levels at treatment initiation. […]
(§1) Raw milk from the T&R Center was monitored for changes in aerobic bacteria, gram-negative bacteria and total Lactobacillus spp. as follows: CO2 pressures of 0 (control), 68, 172, 344, 516 and 689 kPa, at 6.1° C. for 4-days. SPC, gram-negative bacteria and total Lactobacillus spp. were enumerated before (day 0) and after (day 4) treatment. Gram negative bacteria were enumerated on MacConkey Agar (Difco Manual, Becton Dickinson & Co., Sparks, Md.), a selective and differential media which can be used to discriminate between lactose fermenting and non-lactose fermenting gram-negative bacteria. Use of this media allows a one-step method of obtaining estimates of both coliform and non-coliform gram negative bacteria. Coliform bacteria may include species of Escherichia, Klebsiella and Enterobacter, potential pathogens and/or spoilage organisms. Non-coliform gram negative bacteria may include spoilage organisms such as pseudomonads or potential pathogens such as Salmonella spp. or Shigella spp. Numbers of Lactobacillus spp. populations were estimated using acidified (adjusted to pH 5.5 with glacial acetic acid) Lactobacillus MRS agar (Difco Manual, Becton Dickinson & Co., Sparks, Md.) after incubation under anaerobic conditions; suspect colonies were confirmed by gram stain. […]

[2] = test system: Lactobacillus spp.; details: 30 and 45 ppm CO2 (Espie and Madden, 1997); cited from earlier work
[3] = test system: gram-negative non-lactose fermenting bacteria; experiment: Gram-negative non-lactose fermenting bacteria on MacConkey agar, raw milk under CO2 pressure (Example 1); format: cell-based; details: 6.1° C., 4 days
Protocol: as §1, with “spp.” for “spp. Numbers of Lactobacillus spp. populations were estimated using acidified (adjusted to pH 5.5 with glacial acetic acid) Lactobacillus MRS agar (Difco Manual, Becton Dickinson & Co., Sparks, Md.) after incubation under anaerobic conditions; suspect colonies were confirmed by gram stain.”
For all microbiological assays, milk sample aliquots of 1 ml were used in dilution series. […] Representative and distinctive suspect colonies were gram stained, and confirmed gram positive bacilli colonies were counted as an estimate of total Lactobacillus spp.

SMILES: O=C=O [CO2, carbon dioxide]
- microbial growth compared to control milks ([1]; 68, 172, 344, 516 and 689 kPa, 6.1° C., 4 days): significantly reduced microbial growth
- SPC increase from initial SPC ([1]; 68 kPa, 6.1° C., 4 days): 1.28 log10 cfu/ml
- SPC increase ([1]; 68 kPa, 24 h): 1.07 log10 cfu/ml
- SPC increase from initial SPC ([1]; 172 kPa, 6.1° C., 4 days): 1.10 log10 cfu/ml
- SPC increase ([1]; 172 kPa, 24 h): 0.59 log10 cfu/ml
- decrease in counts (SPC) ([1]; 344 kPa CO2, 24 h, 10° C.): 0.31 log10 cfu/ml
- SPC increase from initial SPC ([1]; 344 kPa, 6.1° C., 4 days): 0.94 log10 cfu/ml
- SPC reduction from initial SPC ([1]; 344 kPa, 24 h): 0.39 log10
- decrease in counts (SPC) ([1]; 516 kPa CO2, 24 h, 10° C.): 0.56 log10 cfu/ml
- SPC of treated samples versus initial untreated samples ([1]; 516 kPa CO2 pressure, 6.1° C., 4 days): not significantly different
- SPC increase from initial SPC ([1]; 516 kPa, 6.1° C., 4 days): 0.82 log10 cfu/ml
- SPC reduction from initial SPC ([1]; 516 kPa, 24 h): 0.62 log10
- time for treated milk to reach SPC of 10^5 cfu/ml ([1]; 689 kPa CO2, 4° C.): 8 days
- decrease in counts (SPC) ([1]; 689 kPa CO2, 24 h, 10° C.): 0.71 log10 cfu/ml
- SPC counts, Treated, 4 Days ([1]; 689 kPa CO2 pressure, 4° C., 4 days, raw milk): 7.8 * 10^2b cfu/ml
- SPC counts, Treated, 6 Days ([1]; 689 kPa CO2 pressure, 4° C., 6 days, raw milk): 4.4 * 10^4c cfu/ml
- SPC counts, Treated, 8 Days ([1]; 689 kPa CO2 pressure, 4° C., 8 days, raw milk): 9.7 * 10^4d cfu/ml
- SPC counts, Treated, 9 Days ([1]; 689 kPa CO2 pressure, 4° C., 9 days, raw milk): 2.4 * 10^5e cfu/ml
- extension of treatment holding time compared to control ([1]; 689 kPa, 4° C.): at least four days
- treated milk SPC ([1]; 689 kPa, 4° C., 6 days): 4.64 log10 cfu/ml
- treated milk SPC ([1]; 689 kPa, 4° C., 8 days): 4.99 log10 cfu/ml
- treated milk SPC ([1]; 689 kPa, 4° C., 9 days): 5.37 log10 cfu/ml
- treated milk SPC ([1]; 689 kPa, 4° C., four days (from 3.48)): 2.89 log10 cfu/ml
- SPC lower than initial counts ([1]; 689 kPa, 6.1° C., 4 days): 0.89 log10 cfu/ml
- SPC lower than the controls ([1]; 689 kPa, 6.1° C., 4 days): 3.48 log10 cfu/ml
- difference in SPC between control and test milks ([1]; 689 kPa, 24 h, 10° C.): 2.68 log10 cfu/ml
- SPC reduction from initial SPC ([1]; 689 kPa, 24 h): 0.82 log10
- SPC reduction versus control ([1]; 15 min): 0.33 log10
- SPC reduction versus control ([1]; 30 min): 0.39 log10
- SPC of raw milk compared to untreated controls ([1]; all time-pressure combinations, even 68 kPa and 20° C.): significantly reduced
- effect on the growth of Lactobacillus spp. [2]: no effect
- levels of gram-negative non-fermenters compared to untreated controls ([3]; 68 to 689 kPa): reduced at all pressures
- decrease of gram-negative non-lactose fermenting bacteria compared to initial counts ([3]; 689 kPa): 0.64 log10 cfu/ml
